Measured values as given in patent publication US9243039B2, “Bipartite inhibitors of bacterial RNA polymerase: Sal-target-inhibitor/nucleoside-analog-inhibitor conjugates” (priority 2012, dated 2016).
pIC50: −log10 of the molar value. In brackets after ≈: the same amount, converted by molar mass. Read-outs that look alike come from different tables or passages of the source. *1 amine or outer side, *2 acyl side, *3 side chain or, on linkers, in order; H or OH if unused. Where a SMILES comes first, the peptide text is derived from it. Bridges are numbered along the chain shown (N, C = ends). [ ]: non-standard residue; d: D form. The star is where a group is joined. X1 = C[C@@H](Oc1ccc([C@H](N[*:1])C(=O)[*:2])cc1)[C@](O)(/C=C/C(=O)[*:3])CBr; Pentanoyl(2R-Me,3R-OH,4-Me) = CC(C)[C@@H](O)[C@@H](C)C(=O)*; d(aIle) = CC[C@H](C)[C@@H](N)C(=O)O; d(aThr) = C[C@@H](O)[C@@H](N)C(=O)O; NMeF = CN[C@@H](Cc1ccccc1)C(=O)O

Key:
Escherichia coli RNAP = Escherichia coli RNAP (Escherichia coli, UniProt P0A8T7+P0A8V2); assay: Fluorescence-detected RNAP assay, Escherichia coli RNAP; assay type: biochemical; settings: for pIC50: fluorescent-detected RNAP assays
Protocol: Fluorescence-detected RNAP assays with Escherichia coli RNAP were performed by a modification of the procedure of Kuhlman et al., 2004 [Kuhlman et al., Anal. Biochem. 324:183-190, 2004]. Reaction mixtures contained (20 μl): […] test compound, 75 nM Escherichia coli RNAP […] holoenzyme, 20 nM 384 by DNA fragment containing the bacteriophage T4 N25 promoter, 100 μM ATP, 100 μM GTP, 100 μM UTP, 100 μM CTP, 50 mM Tris-HCl, pH 8.0, 100 mM KCl, 10 mM MgCl2, 1 mM DTT, 10 μg/ml bovine serum albumin, and 5.5% glycerol. Reaction components other than DNA and NTPs were pre-incubated for 10 min at 37° C. Reactions were carried out by addition of DNA and incubation for 5 min at 37° C., followed by addition of NTPs and incubation for 60 min at 37° C. DNA was removed by addition of 1 μl 5 mM CaCl2 and 2 U DNaseI (Ambion, Inc.), followed by incubation for 90 min at 37° C. RNA was quantified by addition of 100 μl RiboGreen RNA Quantitation Reagent (Invitrogen, Inc.; 1:500 dilution in Tris-HCl, pH 8.0, 1 mM EDTA), followed by incubation for 10 min at 25° C., followed by measurement of fluorescence intensity [excitation wavelength=485 nm and emission wavelength=535 nm; QuantaMaster QM1 spectrofluorometer (PTI, Inc.)].
(§1) Half-maximal inhibitory concentrations (IC50s) were calculated by non-linear regression in SigmaPlot (SPSS, Inc.).

human RNAP I/II/III = assay: Radiochemical assay with human RNAP I, II and III (HeLaScribe nuclear extract); assay type: biochemical; settings: for inhibition of human RNAP I, II, and III: in words
Protocol: Radiochemical assays with human RNAP I, II, and III were performed essentially as described [Sawadogo and Roeder, Cell 43:165-75, 1985]. Reaction mixtures contained (20 μl): 0-100 μM test compound, 8 U HeLaScribe Nuclear Extract (Promega, Inc.), 1 μg human placental DNA (Sigma-Aldrich), 400 μM ATP, 400 μM [α^32P]UTP (0.11 Bq/fmol), 400 μM CTP, 400 μM GTP, 50 mM Tris-HCl, pH 8.0, 7 mM HEPES-NaOH, 70 mM (NH4)2SO4, 50 mM KCl, 12 mM MgCl2, 5 mM DTT, 0.1 mM EDTA, 0.08 mM phenylmethylsulfonyl fluoride, and 16% glycerol. Reaction components other than DNA and NTPs were pre-incubated 10 min at 30° C., DNA was added and reaction mixtures were incubated 15 min at 30° C., NTPs were added and reaction mixtures were incubated 60 min at 30° C. Reaction mixtures were spotted on DE81 filter discs (Whatman, Inc.; pre-wetted with water) and incubated 1 min at room temperature. Filters were washed with 3×3 ml Na2HPO4, 2×3 ml water, and 3 ml ethanol, using a filter manifold (Hoefer, Inc.). Filters were placed in scintillation vials containing 10 ml Scintiverse BD Cocktail (Thermo Fisher, Inc.), and radioactivity was quantified by scintillation counting (LS6500; Beckman-Coulter, Inc.).
as §1

[1] = test system: Escherichia coli D21f2toIC; assay: Antibacterial activity, broth microdilution, Escherichia coli D21f2tolC; assay type: cell-based; settings: for MIC50 Escherichia coli D21f2toIC: minimal concentration resulting in ≧50% inhibition of bacterial growth
Text: (§2) Antibacterial activity was quantified using broth microdilution [Clinical and Laboratory Standards Institute (CLSUNCCLS), Methods for Dilution Antimicrobial Susceptibility Tests for Bacteria That Grow Aerobically; Approved Standard, Eighth Edition. CLIS Document M07-A8 (CLIS, Wayne Pa.), 2009]. Assays with Enterobacter cloacae ATCC 13047, Pseudomonas aeruginosa ATCC10145, and Escherichia coli D21f2to1C, employed a starting cell density of 2-5×10^5 cfu/ml, Mueller Hinton II cation adjusted broth (BD Biosciences, Inc.), and an air atmosphere. Assays with Haemophilus influenzae ATCC49247 and Neisseria gonorrhoeae ATCC 19424 employed a starting cell density of 2-5×10^5 cfu/ml, Haemophilus Test Medium broth (Barry et al., 1993) and a 5% CO2/95% air atmosphere. MIC50 was defined as the minimal concentration resulting in ≧50% inhibition of bacterial growth.

[2] = test system: Enterobacter cloacae ATCC 13047; assay: Antibacterial activity, broth microdilution, Enterobacter cloacae; assay type: cell-based; settings: for antibacterial activity against Enterobacter cloacae: in words, Gram-negative bacterial pathogen
Text: as §2

Vero E6 ATCC CRL1586 = assay: Cytotoxicity to mammalian cells in culture (CellTiter96); assay type: cell-based; settings: for MIC50 Vero E6 ATCC CRL1586: mammalian cells in culture; for inhibition of growth of mammalian cells in culture: in words
Text: MICs for mammalian cells (Vero E6) in culture were quantified using CellTiter96 assay (Promega. Inc.; procedures as specified by the manufacturer). Screening data for SalA and SalB (compounds 1 and 2) and representative compounds of this invention (compounds 3-9) are presented in Tables 1-2: […]

Sal-resistant mutants [3] = assay: Cross-resistance of Sal-resistant mutants to other RNAP inhibitors; assay type: cell-based; settings: disclosed herein
Haemophilus influenzae = assay: Antibacterial activity, broth microdilution, Haemophilus influenzae; assay type: cell-based; settings: in words, Gram-negative bacterial pathogen
Text: as §2

Neisseria gonorrhoeae = assay: Antibacterial activity, broth microdilution, Neisseria gonorrhoeae; assay type: cell-based; settings: in words, Gram-negative bacterial pathogen
Text: as §2

Pseudomonas aeruginosa = assay: Antibacterial activity, broth microdilution, Pseudomonas aeruginosa; assay type: cell-based; settings: in words, Gram-negative bacterial pathogen
Text: as §2

RNAP = assay: Mechanism of inhibition of RNAP by Sal; assay type: biochemical; settings: in words
[4] = test system: mutants resistant to other RNAP inhibitors; settings: disclosed herein
[5] = test system: Gram-positive and Gram-negative bacterial RNAP; settings: in words, reported previously (Miao et al. 1997); cited from earlier work
[6] = test system: Gram-positive bacterial pathogens; settings: in words, reported previously (Trischman 1994; Moore 1999); cited from earlier work
[7] = test system: mutants resistant to other RNAP inhibitors; settings: Ebright et al., WO/2012/129173; cited from earlier work
[8] = test system: Gram-positive and Gram-negative bacterial RNAP; assay: Inhibition of bacterial RNAP in vitro (radiochemical RNAP assays); assay type: biochemical; settings: in words, disclosed herein
Protocol: Radiochemical RNAP assays with Escherichia coli RNAP and Staphylococcus aureus RNAP were performed as follows: Reaction mixtures contained (10 μl): 0-100 μM test compound, bacterial RNAP holoenzyme [75 nM Escherichia coli RNAP holoenzyme (prepared as in Mukhopadhyay et al., Meths. Enzymol. 371:144-159, 2003) or 75 nM Staphylococcus aureus RNAP core enzyme and 300 nM Staphylococcus aureus σ^A (prepared as in Srivastava et al., Curr. Opin. Microbiol. 14:532-543, 2011)], 20 nM DNA fragment N25-lacUV5-14 [positions −100 to −1 of the bacteriophage T5 N25 promoter followed by positions +1 to +29 of the lacUV5(+10A; +15C) promoter; prepared by PCR amplification of a synthetic nontemplate-strand oligodeoxyribonucleotide], 0.5 mM ApA, 100 μM [α^32P]UTP (0.2 Bq/fmol), 100 μM ATP, and 100 μM GTP in TB (50 mM Tris-HCl, pH 7.9, 100 mM KCl, 10 mM MgCl2, 1 mM DTT, 100 μg/ml bovine serum albumin, and 5% glycerol). […] Products were applied to 7 M urea 15% polyacrylamide (19:1 acrylamide:bisacrylamide) slab gels (Bio-Rad), electrophoresed in TBE (90 mM Tris-borate, pH 8.0, and 2 mM EDTA), and analyzed by storage-phosphor scanning (Typhoon; GE Healthcare, Inc.).
as §1

Sal-resistant mutants [9] = settings: Ebright et al., WO/2012/129173; cited from earlier work
[10] = minimal concentration resulting in ≧50% inhibition of bacterial growth

Sequence of Escherichia coli RNAP (P0A800 whole entry, the tested form may be a part): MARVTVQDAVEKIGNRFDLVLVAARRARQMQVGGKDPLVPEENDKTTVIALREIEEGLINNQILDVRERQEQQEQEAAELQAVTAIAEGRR
Sequence of Escherichia coli RNAP (P00579 whole entry, further chain, the tested form may be a part): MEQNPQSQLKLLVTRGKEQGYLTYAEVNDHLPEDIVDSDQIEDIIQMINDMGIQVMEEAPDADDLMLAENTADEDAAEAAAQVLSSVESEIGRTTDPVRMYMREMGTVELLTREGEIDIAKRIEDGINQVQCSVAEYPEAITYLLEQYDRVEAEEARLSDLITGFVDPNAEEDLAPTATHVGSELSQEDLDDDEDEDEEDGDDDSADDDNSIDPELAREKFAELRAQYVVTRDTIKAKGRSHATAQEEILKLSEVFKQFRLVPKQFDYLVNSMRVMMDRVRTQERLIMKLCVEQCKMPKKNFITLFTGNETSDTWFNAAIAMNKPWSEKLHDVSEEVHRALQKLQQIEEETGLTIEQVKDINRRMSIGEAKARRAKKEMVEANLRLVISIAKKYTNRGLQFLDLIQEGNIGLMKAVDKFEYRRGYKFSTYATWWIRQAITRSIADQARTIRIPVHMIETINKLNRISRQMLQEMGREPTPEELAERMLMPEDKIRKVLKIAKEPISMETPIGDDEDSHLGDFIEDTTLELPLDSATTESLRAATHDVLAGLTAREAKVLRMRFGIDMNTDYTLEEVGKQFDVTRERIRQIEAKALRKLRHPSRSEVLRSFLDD
Sequence of Escherichia coli RNAP (P0A8V2 whole entry, the tested form may be a part): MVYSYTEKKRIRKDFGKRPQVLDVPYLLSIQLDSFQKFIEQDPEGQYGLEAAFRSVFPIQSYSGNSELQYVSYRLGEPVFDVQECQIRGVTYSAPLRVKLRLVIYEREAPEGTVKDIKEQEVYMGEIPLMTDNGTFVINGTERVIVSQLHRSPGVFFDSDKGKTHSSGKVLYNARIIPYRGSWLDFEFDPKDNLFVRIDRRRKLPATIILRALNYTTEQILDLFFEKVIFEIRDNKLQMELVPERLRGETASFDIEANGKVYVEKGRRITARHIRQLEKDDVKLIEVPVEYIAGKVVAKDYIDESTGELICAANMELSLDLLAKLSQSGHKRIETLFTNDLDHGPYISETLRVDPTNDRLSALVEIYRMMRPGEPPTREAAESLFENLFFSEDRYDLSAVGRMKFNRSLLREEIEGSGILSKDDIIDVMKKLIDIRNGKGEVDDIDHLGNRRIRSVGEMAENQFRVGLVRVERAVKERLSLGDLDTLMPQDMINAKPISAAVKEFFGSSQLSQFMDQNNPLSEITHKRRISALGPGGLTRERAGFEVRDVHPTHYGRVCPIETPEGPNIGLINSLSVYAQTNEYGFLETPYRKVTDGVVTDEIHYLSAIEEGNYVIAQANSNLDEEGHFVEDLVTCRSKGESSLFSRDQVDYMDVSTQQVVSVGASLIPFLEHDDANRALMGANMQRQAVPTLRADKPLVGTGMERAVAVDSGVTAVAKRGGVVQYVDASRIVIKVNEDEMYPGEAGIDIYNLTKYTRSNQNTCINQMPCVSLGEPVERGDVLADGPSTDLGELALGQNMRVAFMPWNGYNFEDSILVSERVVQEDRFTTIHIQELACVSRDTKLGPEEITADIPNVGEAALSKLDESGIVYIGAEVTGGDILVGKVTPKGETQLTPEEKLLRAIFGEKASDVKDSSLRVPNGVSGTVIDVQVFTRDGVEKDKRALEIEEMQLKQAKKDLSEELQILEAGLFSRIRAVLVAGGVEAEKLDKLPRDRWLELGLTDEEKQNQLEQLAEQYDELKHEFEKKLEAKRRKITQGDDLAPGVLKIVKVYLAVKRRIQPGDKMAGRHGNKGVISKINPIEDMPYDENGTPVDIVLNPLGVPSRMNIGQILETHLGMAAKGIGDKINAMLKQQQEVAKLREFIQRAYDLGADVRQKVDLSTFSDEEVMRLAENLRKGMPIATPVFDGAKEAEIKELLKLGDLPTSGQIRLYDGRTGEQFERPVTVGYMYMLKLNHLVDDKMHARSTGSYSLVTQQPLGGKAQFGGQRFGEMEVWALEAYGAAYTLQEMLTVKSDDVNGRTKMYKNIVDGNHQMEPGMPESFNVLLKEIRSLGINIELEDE
Sequence of Escherichia coli RNAP (P0A8T7 whole entry, the tested form may be a part): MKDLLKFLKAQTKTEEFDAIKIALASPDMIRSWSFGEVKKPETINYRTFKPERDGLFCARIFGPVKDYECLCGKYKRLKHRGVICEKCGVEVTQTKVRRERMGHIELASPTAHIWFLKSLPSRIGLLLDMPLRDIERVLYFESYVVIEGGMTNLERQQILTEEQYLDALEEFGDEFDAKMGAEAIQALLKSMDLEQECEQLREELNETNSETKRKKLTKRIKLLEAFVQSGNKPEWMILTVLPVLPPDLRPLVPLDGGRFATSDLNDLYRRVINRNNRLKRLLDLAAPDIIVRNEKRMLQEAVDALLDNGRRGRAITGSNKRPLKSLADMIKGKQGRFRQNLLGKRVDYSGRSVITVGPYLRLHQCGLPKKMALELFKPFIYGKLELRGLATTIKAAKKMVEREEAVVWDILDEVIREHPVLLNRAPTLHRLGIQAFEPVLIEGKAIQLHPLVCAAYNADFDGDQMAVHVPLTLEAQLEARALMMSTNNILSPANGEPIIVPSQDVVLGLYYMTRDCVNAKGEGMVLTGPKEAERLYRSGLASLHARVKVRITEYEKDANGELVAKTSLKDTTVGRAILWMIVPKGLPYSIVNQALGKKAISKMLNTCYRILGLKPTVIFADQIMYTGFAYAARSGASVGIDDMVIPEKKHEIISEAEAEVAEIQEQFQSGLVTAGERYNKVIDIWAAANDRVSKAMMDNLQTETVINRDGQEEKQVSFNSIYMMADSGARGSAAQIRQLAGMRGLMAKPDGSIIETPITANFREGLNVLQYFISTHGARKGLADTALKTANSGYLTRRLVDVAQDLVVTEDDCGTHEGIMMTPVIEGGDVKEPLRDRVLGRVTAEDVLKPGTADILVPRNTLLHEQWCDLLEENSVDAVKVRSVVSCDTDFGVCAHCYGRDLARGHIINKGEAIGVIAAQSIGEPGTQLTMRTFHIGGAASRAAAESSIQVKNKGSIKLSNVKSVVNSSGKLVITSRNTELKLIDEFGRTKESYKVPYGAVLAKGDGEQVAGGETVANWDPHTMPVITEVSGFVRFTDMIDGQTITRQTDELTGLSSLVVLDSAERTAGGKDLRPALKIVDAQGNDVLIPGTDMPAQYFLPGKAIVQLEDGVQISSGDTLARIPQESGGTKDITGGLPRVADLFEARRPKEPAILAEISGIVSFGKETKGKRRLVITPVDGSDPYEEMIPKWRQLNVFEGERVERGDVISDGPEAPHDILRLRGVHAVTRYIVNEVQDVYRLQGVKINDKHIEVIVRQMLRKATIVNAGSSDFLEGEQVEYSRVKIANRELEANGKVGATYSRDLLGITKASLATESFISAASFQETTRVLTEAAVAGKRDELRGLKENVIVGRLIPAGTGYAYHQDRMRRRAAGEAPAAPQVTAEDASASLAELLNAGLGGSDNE
Sequence of Escherichia coli RNAP (P0A7Z4 whole entry, further chain, the tested form may be a part): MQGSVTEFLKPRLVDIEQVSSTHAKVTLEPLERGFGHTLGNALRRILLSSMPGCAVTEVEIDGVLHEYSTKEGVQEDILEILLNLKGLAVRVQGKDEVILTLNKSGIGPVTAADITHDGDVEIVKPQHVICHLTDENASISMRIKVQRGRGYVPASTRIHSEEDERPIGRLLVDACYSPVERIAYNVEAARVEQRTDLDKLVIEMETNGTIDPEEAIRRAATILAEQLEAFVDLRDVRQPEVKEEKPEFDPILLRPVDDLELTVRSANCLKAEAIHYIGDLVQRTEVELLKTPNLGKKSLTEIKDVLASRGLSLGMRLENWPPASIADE

CC[C@H](C)[C@H]1NC(=O)[C@@H](NC(=O)[C@H](C)[C@H](O)C(C)C)[C@@H](C)OC(=O)[C@@H]2COC(=O)CNC(=O)/C=C/[C@](O)(CBr)[C@@H](C)Oc3ccc(cc3)[C@H](NC1=O)C(=O)N(C)[C@@H](Cc1ccccc1)C(=O)N[C@H]([C@@H](C)O)C(=O)N2 [Sal-Br (3)] ({Pentanoyl(2R-Me,3R-OH,4-Me)}-T[d(aIle)][X1][NMeF][d(aThr)]S; ester 1-C; linker 3-6 via G)
pIC50 (Escherichia coli RNAP): 5.52
RNAP-inhibitory activity (Escherichia coli RNAP; in words, refers to Table 1): essentially full
pIC50 (human RNAP I/II/III): < 4.00
MIC50 ([1]; Escherichia coli, D21F2TOIC, read-out: MIC50 Escherichia coli D21f2toIC): 0.049 µg/mL (≈ 0.0445 µM)
antibacterial activity ([1]; in words, refers to Table 2): essentially full
MIC50 ([2]; Enterobacter cloacae, ATCC13047, minimal concentration resulting in ≧50% inhibition of bacterial growth): 1.56 µg/mL (≈ 1.42 µM)
MIC50 Vero E6 ATCC CRL1586 (Vero E6 ATCC CRL1586): >100 µg/mL

lipiarmycin
cross-resistance of Sal-resistant mutants to the compound (Sal-resistant mutants [3]): do not exhibit cross-resistance

Salinamide A [SalA (1)]
pIC50 (Escherichia coli RNAP): 6.00
pIC50 (human RNAP I/II/III): < 4.00
inhibition of human RNAP I, II, and III (human RNAP I/II/III): do not detectably inhibit
MIC50 Escherichia coli D21f2toIC [1]: 0.024 µg/mL
antibacterial activity against Enterobacter cloacae [2]: exhibit antibacterial activity
MIC50 Enterobacter cloacae ATCC 13047 [2, 10]: 1.56 µg/mL
inhibition of growth of mammalian cells in culture (Vero E6 ATCC CRL1586): do not detectably inhibit growth
MIC50 Vero E6 ATCC CRL1586 (Vero E6 ATCC CRL1586): >100 µg/mL
antibacterial activity against Haemophilus influenzae (Haemophilus influenzae): exhibit antibacterial activity
antibacterial activity against Neisseria gonorrhoeae (Neisseria gonorrhoeae): exhibit antibacterial activity
antibacterial activity against Pseudomonas aeruginosa (Pseudomonas aeruginosa): exhibit antibacterial activity
inhibition of formation of the RNAP-promoter open complex in transcription initiation (RNAP): does not inhibit
inhibition of nucleotide addition in both transcription initiation and transcription elongation (RNAP): inhibits
inhibition of wild-type RNAP versus RNAP-derivative having a deletion of the trigger loop (RNAP): equal extents
mode of transcription inhibition with respect to NTP substrate (RNAP): noncompetitive
cross-resistance to Sal of streptolydigin-resistant, myxopyronin-resistant, and lipiarmycin-resistant mutants [4]: do not exhibit cross-resistance
inhibition of Gram-positive and Gram-negative bacterial RNAP in vitro [5]: inhibits
antibacterial activity against Gram-positive bacterial pathogens [6]: exhibit antibacterial activity
cross-resistance to Sal of CBR703-resistant mutants [7]: not cross-resistant
cross-resistance to Sal of rifamycin-resistant mutants [7]: not cross-resistant

CNC(=O)[C@@H](C)[C@H]1C(=O)/C(=C(O)/C=C/C(C)=C/[C@@H](C)[C@H]2O[C@@]3(C)O[C@H](C=C[C@@]34CO4)[C@@H]2C)C(=O)N1[C@@H]1CC[C@H](O)[C@H](C)O1 [streptolydigin]
cross-resistance of Sal-resistant mutants to the compound (Sal-resistant mutants [3]): do not exhibit cross-resistance

salinamide B [SalB (2)]
pIC50 (Escherichia coli RNAP): 6.00
pIC50 (human RNAP I/II/III): < 4.00
inhibition of human RNAP I, II, and III (human RNAP I/II/III): do not detectably inhibit
MIC50 Escherichia coli D21f2toIC [1]: 0.098 µg/mL
antibacterial activity against Enterobacter cloacae [2]: exhibit antibacterial activity
MIC50 Enterobacter cloacae ATCC 13047 [2, 10]: 6.25 µg/mL
inhibition of growth of mammalian cells in culture (Vero E6 ATCC CRL1586): do not detectably inhibit growth
MIC50 Vero E6 ATCC CRL1586 (Vero E6 ATCC CRL1586): >100 µg/mL
inhibition of Gram-positive and Gram-negative bacterial RNAP in vitro [8]: inhibits
antibacterial activity against Haemophilus influenzae (Haemophilus influenzae): exhibit antibacterial activity
antibacterial activity against Neisseria gonorrhoeae (Neisseria gonorrhoeae): exhibit antibacterial activity
antibacterial activity against Pseudomonas aeruginosa (Pseudomonas aeruginosa): exhibit antibacterial activity
antibacterial activity against Gram-positive bacterial pathogens [6]: exhibit antibacterial activity

myxopyronin
cross-resistance of Sal-resistant mutants to the compound (Sal-resistant mutants [3]): do not exhibit cross-resistance

ONC(=Nc1ccccc1)c1cccc(C(F)(F)F)c1 [CBR703]
cross-resistance of Sal-resistant mutants to the compound (Sal-resistant mutants [9]): not cross-resistant
